From ChEMBL document CHEMBL1921677, “Ungeremine effectively targets mammalian as well as bacterial type I and type II topoisomerases” (Bioorg Med Chem Lett, 2011)
Converted amounts (≈) assume the structure as drawn. The source made the active and inactive calls. The calls are words filed in the database; no cut-off is given here.

Columns and labels:
[1] = target: T1, DNA topoisomerase 1 (Homo sapiens) (UniProt P11387); assay: (§1) Inhibition of human topoisomerase 1-mediated relaxation of supercoiled pBR322 DNA
T1 sequence (whole entry): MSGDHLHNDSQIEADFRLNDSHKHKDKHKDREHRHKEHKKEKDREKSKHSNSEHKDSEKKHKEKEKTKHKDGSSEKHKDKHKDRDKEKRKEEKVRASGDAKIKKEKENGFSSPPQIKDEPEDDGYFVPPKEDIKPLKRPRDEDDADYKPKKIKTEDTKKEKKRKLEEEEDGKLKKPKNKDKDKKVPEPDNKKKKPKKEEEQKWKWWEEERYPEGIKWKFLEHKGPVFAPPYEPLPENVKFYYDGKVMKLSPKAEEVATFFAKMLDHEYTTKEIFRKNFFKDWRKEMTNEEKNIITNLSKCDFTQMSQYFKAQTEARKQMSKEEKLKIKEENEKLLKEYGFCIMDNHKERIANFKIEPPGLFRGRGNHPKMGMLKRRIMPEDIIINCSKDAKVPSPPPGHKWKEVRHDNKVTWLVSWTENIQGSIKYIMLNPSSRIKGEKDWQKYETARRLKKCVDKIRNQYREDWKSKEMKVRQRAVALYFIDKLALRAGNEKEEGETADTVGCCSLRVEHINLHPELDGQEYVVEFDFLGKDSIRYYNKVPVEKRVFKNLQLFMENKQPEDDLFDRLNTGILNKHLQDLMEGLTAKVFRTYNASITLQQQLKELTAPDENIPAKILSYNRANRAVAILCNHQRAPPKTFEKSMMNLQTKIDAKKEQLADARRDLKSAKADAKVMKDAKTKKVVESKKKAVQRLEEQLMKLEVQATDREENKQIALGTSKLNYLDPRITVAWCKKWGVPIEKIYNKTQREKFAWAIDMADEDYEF

[2] = test system: Nucleic Acid; assay: Binding affinity to calf thymus DNA assessed as change in absorption spectra at increasing concentration at pH 8 by UV-Vis spectra analysis; type: nucleic-acid assay; conditions: Bos taurus
[3] = target: T2, DNA topoisomerase 2-alpha (Homo sapiens, UniProt P11388); assay: Inhibition of human topoisomerase 2alpha-mediated relaxation of supercoiled pBR322 DNA
[4] = test system: Escherichia coli; assay: Inhibition of Escherichia coli topoisomerase 4 kinetoplast DNA decatenation activity assessed as formation of monomeric circle from DNA at pH 8 after 1 hr
[5] = target: T3, DNA topoisomerase 1 (Homo sapiens, UniProt P11387); assay: as §1
T3 sequence (P11387 whole entry): T1 sequence (whole entry)

[6] = Inhibition of Escherichia coli DNA topoisomerase 4-mediated relaxation of supercoiled pBR322 DNA
[7] = test system: Escherichia coli; assay: Stabilization of Escherichia coli DNA topoisomerase 1-DNA cleavage complex assessed as cleavage enhancement using 32P-TAACCCTGAAAGATTATGCAATGCGCTTTGGG ssDNA as substrate at 10 to 200 uM at pH 8 after 20 mins by agarose gel electrophoresis relative to control
[8] = target: T2, DNA topoisomerase 2-alpha; assay: Inhibition of human topoisomerase 2alpha kinetoplast DNA decatenation activity assessed as formation of monomeric circle from DNA at pH 8 after 1 hr
[9] = Inhibition of Escherichia coli DNA topoisomerase 1-mediated relaxation of supercoiled pBR322 DNA
[10] = test system: Salmonella typhi; assay: Antibacterial activity against Salmonella typhi by agar dilution method; type: functional, Salmonella enterica subsp. enterica serovar Typhi; conditions: Salmonella enterica
[11] = test system: HL-60; assay: Cytotoxicity against human HL60 cells after 72 hrs by MTT assay; type: functional, cell-based; conditions: HL-60, 72 h
[12] = test system: MCF7; assay: Cytotoxicity against human MCF7 cells after 72 hrs by MTT assay; type: functional, cell-based; conditions: MCF7, 72 h
[13] = test system: Staphylococcus epidermidis; assay: Antibacterial activity against Staphylococcus epidermidis by agar dilution method; type: functional

T2 sequence (P11388 whole entry): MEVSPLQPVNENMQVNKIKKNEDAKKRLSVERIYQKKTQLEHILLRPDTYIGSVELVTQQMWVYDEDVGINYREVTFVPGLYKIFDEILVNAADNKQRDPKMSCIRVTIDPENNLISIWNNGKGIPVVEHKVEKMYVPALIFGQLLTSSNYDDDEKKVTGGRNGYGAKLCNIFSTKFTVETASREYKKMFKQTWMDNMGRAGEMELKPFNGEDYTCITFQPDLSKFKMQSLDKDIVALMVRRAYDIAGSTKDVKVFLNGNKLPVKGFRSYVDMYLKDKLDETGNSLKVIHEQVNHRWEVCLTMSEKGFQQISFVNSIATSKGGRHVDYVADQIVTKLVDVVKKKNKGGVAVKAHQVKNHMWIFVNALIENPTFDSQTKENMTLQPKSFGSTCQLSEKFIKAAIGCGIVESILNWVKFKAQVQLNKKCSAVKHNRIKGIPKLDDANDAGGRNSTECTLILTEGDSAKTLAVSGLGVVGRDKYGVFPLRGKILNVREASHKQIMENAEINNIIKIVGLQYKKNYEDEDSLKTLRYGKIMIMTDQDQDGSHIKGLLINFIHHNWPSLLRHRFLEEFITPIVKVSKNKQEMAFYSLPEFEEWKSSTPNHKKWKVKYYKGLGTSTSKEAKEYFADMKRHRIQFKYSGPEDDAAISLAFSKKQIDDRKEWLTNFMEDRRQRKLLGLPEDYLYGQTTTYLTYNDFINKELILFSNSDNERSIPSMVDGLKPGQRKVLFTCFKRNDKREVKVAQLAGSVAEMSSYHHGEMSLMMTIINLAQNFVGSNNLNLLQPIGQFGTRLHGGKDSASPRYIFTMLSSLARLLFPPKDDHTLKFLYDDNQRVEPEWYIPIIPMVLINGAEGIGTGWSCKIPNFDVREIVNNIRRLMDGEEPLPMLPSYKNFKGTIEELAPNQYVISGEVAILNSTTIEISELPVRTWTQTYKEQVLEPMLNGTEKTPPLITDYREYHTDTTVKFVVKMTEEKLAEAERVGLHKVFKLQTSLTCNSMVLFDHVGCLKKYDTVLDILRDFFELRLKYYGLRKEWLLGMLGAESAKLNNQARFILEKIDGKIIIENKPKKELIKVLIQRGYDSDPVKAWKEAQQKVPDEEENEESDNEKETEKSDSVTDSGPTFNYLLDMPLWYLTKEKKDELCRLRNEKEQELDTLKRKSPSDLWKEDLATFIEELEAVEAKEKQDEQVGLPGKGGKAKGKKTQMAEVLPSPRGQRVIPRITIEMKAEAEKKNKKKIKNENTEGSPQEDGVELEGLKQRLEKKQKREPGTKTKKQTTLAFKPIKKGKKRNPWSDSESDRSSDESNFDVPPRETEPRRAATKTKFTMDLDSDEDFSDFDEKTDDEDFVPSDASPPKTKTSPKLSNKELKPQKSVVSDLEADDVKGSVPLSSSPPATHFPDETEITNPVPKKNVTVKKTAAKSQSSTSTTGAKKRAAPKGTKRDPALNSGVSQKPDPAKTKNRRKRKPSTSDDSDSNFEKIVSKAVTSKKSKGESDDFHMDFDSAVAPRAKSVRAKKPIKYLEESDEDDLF

| SMILES | inhibition [1] | Activity [2] | inhibition [3] | inhibition [4] | IC50 [5] | IC50 [6] | fold change (FC) [7] | inhibition [8] | IC50 [9] | MIC [10] | IC50 [11] | IC50 [3] | IC50 [12] | MIC [13] |
| --- | --- | --- | --- | --- | --- | --- | --- | --- | --- | --- | --- | --- | --- | --- |
| O[C@@H]1C=C[C@]23CCN(Cc4cc5c(cc42)OCO5)[C@H]3C1 | inactive | inactive | inactive | – | – | – | – | – | – | – | – | – | – | – |
| O[C@H]1[C@H]2c3cc4c(cc3CN3CCC(=C[C@@H]1O)[C@H]23)OCO4 | inactive | inactive | inactive | – | – | – | – | – | – | – | – | – | – | – |
| [O-]c1cc2c3c(c1)c1cc4c(cc1c[n+]3CC2)OCO4 [UNGEREMINE] | – | Active | – | inactive | 6.1 µM | 7.3 µM | 250 | Active | 15 µM | 125 µg/mL (≈ 471 µM) | 1.4 µM | 25.8 µM | > 40 µM | 31.2 µg/mL (≈ 118 µM) |
